Reference: paper PMC9081825 (2022)

How the values were obtained:
Assay in all cases: QD fluorescence recovery on release from amSWCNT
[1] = system: A08min-QDs (multi-QD mixture, nanocomplex 1) (DNA, aptamer) GGCAGTGTGGGCGAATCTATGCGTACCGTTCGATATCGTG; conditions: 137 mM NaCl, 2.7 mM KCl; phosphate buffer pH 7.4; tested at 1.5 μM; 530 nm
[2] = system: 1.12.2-RQD (nanocomplexes 4 and 5) (DNA, aptamer) GATCGGGTGTGGGTGGCGTAAAGGGAGCATCGGACA; conditions: 120 mM NaCl, 5 mM KCl, 10 mM CaCl2, 10 mM HEPES pH 7.0 (buffer listed for 1.12.2 in supplement)
[3] = system: 1.12.2-GQD (nanocomplex 3) (DNA, aptamer) GATCGGGTGTGGGTGGCGTAAAGGGAGCATCGGACA; conditions: 120 mM NaCl, 5 mM KCl, 10 mM CaCl2, 10 mM HEPES pH 7.0 (buffer listed for 1.12.2 in supplement)
[4] = system: A08min-GQD (nanocomplex 3) (DNA, aptamer) GGCAGTGTGGGCGAATCTATGCGTACCGTTCGATATCGTG; conditions: 137 mM NaCl, 2.7 mM KCl; phosphate buffer pH 7.4; OTA 0-1.2 μM; 525 nm; 0.12 mg/mL amSWCNT
[5] = system: A08min-RQD (nanocomplex 4) (DNA, aptamer) GGCAGTGTGGGCGAATCTATGCGTACCGTTCGATATCGTG; conditions: 137 mM NaCl, 2.7 mM KCl; phosphate buffer pH 7.4; OTA 0-1.2 μM; 650 nm; 0.12 mg/mL amSWCNT

Row | SMILES | binding [1] | other results
1 | CC(=O)CC(c1ccccc1)c1c(O)c2ccccc2oc1=O (centres unmarked) | no | –
2 | CCCC[C@@H](C)[C@@H](OC(=O)C[C@@H](CC(=O)O)C(=O)O)[C@H](C[C@@H](C)C[C@H](O)CCCC[C@@H](O)C[C@H](O)[C@H](C)N)OC(=O)C[C@@H](CC(=O)O)C(=O)O | no | –
3 | C[C@@H]1Cc2c(Cl)cc(C(=O)N[C@@H](Cc3ccccc3)C(=O)O)c(O)c2C(=O)O1 | – | binding [2]: yes; binding [3]: yes; binding [4]: yes; binding [5]: yes
4 | C[C@@H]1Cc2ccc(C(=O)N[C@@H](Cc3ccccc3)C(=O)O)c(O)c2C(=O)O1 | no | –
5 | O=C1C=C2C(=CCOC2O)O1 (centres unmarked) | no | –
